Data published in PubChem BioAssay (NCI).
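How tested: cells in 96-well plates exposed to compound for 48 hours at five concentrations. The concentration for full growth arrest is given as TGI.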

Tests used:
Test in all cases: inhibition of tumour cell growth, NCI panel, 48 h
786-0 renal = system: 786-0 renal
A498 renal = system: A498 renal
A549 NSCLC = system: A549 NSCLC
ACHN renal = system: ACHN renal
BT-549 breast = system: BT-549 breast
CAKI-1 renal = system: CAKI-1 renal
CCRF-CEM leukemia = system: CCRF-CEM leukemia
COLO 205 colon = system: COLO 205 colon
DU-145 prostate = system: DU-145 prostate
EKVX NSCLC = system: EKVX NSCLC
HCC-2998 colon = system: HCC-2998 colon
HCT-116 colon = system: HCT-116 colon
HCT-15 colon = system: HCT-15 colon
HL-60(TB) leukemia = system: HL-60(TB) leukemia
HOP-62 NSCLC = system: HOP-62 NSCLC
HOP-92 NSCLC = system: HOP-92 NSCLC
HS 578T breast = system: HS 578T breast
HT29 colon = system: HT29 colon
IGROV1 ovarian = system: IGROV1 ovarian
K-562 leukemia = system: K-562 leukemia
KM12 colon = system: KM12 colon
LOX IMVI melanoma = system: LOX IMVI melanoma
M14 melanoma = system: M14 melanoma
MALME-3M melanoma = system: MALME-3M melanoma
MCF7 breast = system: MCF7 breast
MDA-MB-231 breast = system: MDA-MB-231 breast
MDA-MB-435 = system: MDA-MB-435
MDA-N = system: MDA-N
MOLT-4 leukemia = system: MOLT-4 leukemia
NCI-H226 lung = system: NCI-H226 lung
NCI-H23 lung = system: NCI-H23 lung
NCI-H460 lung = system: NCI-H460 lung
NCI-H522 lung = system: NCI-H522 lung
NCI/ADR-RES ovarian = system: NCI/ADR-RES ovarian
OVCAR-3 ovarian = system: OVCAR-3 ovarian
OVCAR-4 ovarian = system: OVCAR-4 ovarian
OVCAR-5 ovarian = system: OVCAR-5 ovarian
OVCAR-8 ovarian = system: OVCAR-8 ovarian
PC-3 prostate = system: PC-3 prostate
RPMI-8226 leukemia = system: RPMI-8226 leukemia
RXF 393 renal = system: RXF 393 renal
SF-268 CNS = system: SF-268 CNS
SF-295 CNS = system: SF-295 CNS
SF-539 CNS = system: SF-539 CNS
SK-MEL-2 melanoma = system: SK-MEL-2 melanoma
SK-MEL-28 melanoma = system: SK-MEL-28 melanoma
SK-MEL-5 melanoma = system: SK-MEL-5 melanoma
SK-OV-3 ovarian = system: SK-OV-3 ovarian
SN12C renal = system: SN12C renal
SNB-19 CNS = system: SNB-19 CNS
SW-620 colon = system: SW-620 colon
T-47D breast = system: T-47D breast
TK-10 renal = system: TK-10 renal
U251 CNS = system: U251 CNS
UACC-257 melanoma = system: UACC-257 melanoma
UO-31 renal = system: UO-31 renal
SNB-75 CNS = system: SNB-75 CNS
SR leukemia = system: SR leukemia
UACC-62 melanoma = system: UACC-62 melanoma

Measured: TGI

Cc1ccc(S(=O)(=O)N2CCSCCSCCN(S(=O)(=O)c3ccc(C)cc3)CCN(S(=O)(=O)c3ccc(C)cc3)CC2)cc1
not listed: SNB-75 CNS | SR leukemia | UACC-62 melanoma
> 100 µM: all other assays above

O=C1CN(c2ccc(Cl)cc2)C(=O)CN1CCN1CC(=O)N(c2ccc(Cl)cc2)CC1=O
not listed: K-562 leukemia | LOX IMVI melanoma | MDA-MB-231 breast | NCI-H226 lung | NCI/ADR-RES ovarian | SF-539 CNS | SK-MEL-2 melanoma | T-47D breast
> 100 µM: all other assays above
